Measurements: patent US20120313040A1, “COATING LIQUID, OPTICAL ANISOTROPIC FILM AND IMAGE DISPLAY DEVICE” (NITTO DENKO CORPORATION, priority 2011, published 2012)
Like-named read-outs stand apart in the source and are kept apart here.

Assays:
[1] = Dissolution in ion-exchanged water to prepare a 30 mass % coating liquid; format: physicochemical
Protocol: The lyotropic liquid crystalline compound of formula (4) was dissolved in ion-exchanged water, thereby preparing a coating liquid having a concentration of the lyotropic liquid crystalline compound of 30 mass %.
The lyotropic liquid crystalline compound of formula (5) was dissolved in ion-exchanged water, thereby preparing a coating liquid having a concentration of the lyotropic liquid crystalline compound of 30 mass %.
In Comparative Example 1, there was used a perylenetetracarboxylic acid diimide represented by formula (6), which was an intermediate product in Synthesis Example 1 of Lyotropic Liquid Crystalline Compound. Using this compound, it was tried to obtain a coating liquid having a concentration of the lyotropic liquid crystalline compound of 30 mass % in the same manner as in Example 1.
In Comparative Example 2, there was used a compound represented by formula (7), which was an intermediate product in Synthesis Example 2 of Lyotropic Liquid Crystalline Compound. Using this compound, it was tried to obtain a coating liquid having a concentration of the lyotropic liquid crystalline compound of 30 mass % in the same manner as in Example 1.

[2] = Observation of liquid crystal phase of the coating liquid under a polarizing microscope; format: physicochemical; conditions: 30 mass % in ion-exchanged water, observed at 23° C.
Excerpt: A small amount of the coating liquid was sandwiched between two glass slides, and a liquid crystal phase thereof was observed using a polarizing microscope (manufactured by Olympus Corporation, product name: “OPTIPHOT-POL”) equipped with a large-sized sample heating/cooling stage for microscope (manufactured by Japan High Tech Co., Ltd., product: name “10013L”).

C[n+]1ccc(N2C(=O)c3ccc4c5ccc6c7c(ccc(c8ccc(c3c48)C2=O)c75)C(=O)N(c2cc[n+](C)cc2)C6=O)cc1 [formula (4), N,N′-bis(4-N-methylpyridyl)-3,4,9,10-perylenecarboxylic acid diimide dichloride]
solubility in ion-exchanged water ([1]; ion-exchanged water, target concentration 30 mass %): dissolved in water easily and well | liquid crystal phase of coating liquid [2]: nematic liquid crystal phase

C[n+]1ccc2c(c1)nc1c3ccc4c5ccc6c(=O)n7c8cc[n+](C)cc8nc7c7ccc(c8ccc(c(=O)n21)c3c84)c5c67 [formula (5)]
solubility in ion-exchanged water [1]: dissolved in water easily and well | liquid crystal phase of coating liquid [2]: nematic liquid crystal phase

O=C1c2ccc3c4ccc5c6c(ccc(c7ccc(c2c37)C(=O)N1c1ccncc1)c64)C(=O)N(c1ccncc1)C5=O [formula (6), perylenetetracarboxylic acid diimide, reference compound]
solubility in ion-exchanged water [1]: scarcely dissolved in ion-exchanged water

O=c1c2ccc3c4ccc5c6c(ccc(c7ccc(c2c37)c2nc3cnccc3n12)c46)c(=O)n1c2ccncc2nc51 [formula (7), reference compound]
solubility in ion-exchanged water [1]: scarcely dissolved in ion-exchanged water | liquid crystal phase of coating liquid [2]: no liquid crystal phase
